Results on 1 compound are retold here after BindingDB's records for doi:10.1074/jbc.271.28.16435 (Merck Research Laboratories, 1996).

Assay [1] deals with T1, Neuropeptide Y receptor type 5 (Mus musculus, UniProt O70342).
T1 sequence (O70342 whole entry): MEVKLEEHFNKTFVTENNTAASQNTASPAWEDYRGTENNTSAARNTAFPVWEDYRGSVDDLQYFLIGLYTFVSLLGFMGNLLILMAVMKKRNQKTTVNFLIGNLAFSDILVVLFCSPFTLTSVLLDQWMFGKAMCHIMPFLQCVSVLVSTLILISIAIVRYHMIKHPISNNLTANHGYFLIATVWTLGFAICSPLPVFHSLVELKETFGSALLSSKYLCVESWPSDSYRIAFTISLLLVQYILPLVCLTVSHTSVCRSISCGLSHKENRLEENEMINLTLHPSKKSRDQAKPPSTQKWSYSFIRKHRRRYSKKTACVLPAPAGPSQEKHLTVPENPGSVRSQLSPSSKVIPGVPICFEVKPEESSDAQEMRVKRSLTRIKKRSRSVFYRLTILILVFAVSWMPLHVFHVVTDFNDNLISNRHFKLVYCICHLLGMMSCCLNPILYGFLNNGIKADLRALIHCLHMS

The target of assay [2] is T2, Neuropeptide Y receptor type 1 (Mus musculus, UniProt Q04573).
T2 sequence (Q04573 whole entry): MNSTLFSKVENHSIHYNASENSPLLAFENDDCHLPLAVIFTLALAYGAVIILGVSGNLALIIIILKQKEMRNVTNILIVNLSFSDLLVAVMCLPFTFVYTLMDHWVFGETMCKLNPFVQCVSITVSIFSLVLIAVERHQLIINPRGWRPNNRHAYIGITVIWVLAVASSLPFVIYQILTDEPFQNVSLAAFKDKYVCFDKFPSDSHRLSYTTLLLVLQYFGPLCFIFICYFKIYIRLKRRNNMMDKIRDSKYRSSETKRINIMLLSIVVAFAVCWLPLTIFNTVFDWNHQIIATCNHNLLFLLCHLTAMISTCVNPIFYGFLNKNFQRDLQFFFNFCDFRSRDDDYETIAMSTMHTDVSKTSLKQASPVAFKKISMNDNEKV

The Ki is a dissociation constant, usually derived from enzyme kinetics or from competition with a known ligand. Turning to `CC[C@H](C)[C@H](NC(=O)[C@H](Cc1ccc(O)cc1)NC(=O)[C@H](CCCNC(=N)N)NC(=O)[C@H](CCCNC(=N)N)NC(=O)[C@H](CC(C)C)NC(=O)[C@H](CC(=O)O)NC(=O)[C@H](C)NC(=O)[C@H](C)NC(=O)[C@H](Cc1ccc(O)cc1)NC(=O)[C@H](CCC(N)=O)NC(=O)[C@H](C)NC(=O)[C@H](CCSC)NC(=O)[C@H](CCC(N)=O)NC(=O)[C@H](CCC(=O)O)NC(=O)[C@@H]1CCCN1C(=O)[C@@H](NC(=O)[C@H](C)NC(=O)[C@H](CC(N)=O)NC(=O)[C@H](CC(=O)O)NC(=O)CNC(=O)[C@@H]1CCCN1C(=O)[C@H](Cc1ccc(O)cc1)NC(=O)[C@@H](NC(=O)[C@@H]1CCCN1C(=O)[C@H](CCC(=O)O)NC(=O)[C@H](CC(C)C)NC(=O)[C@@H]1CCCN1C(=O)[C@H](C)N)C(C)C)[C@@H](C)O)C(=O)N[C@@H](CC(N)=O)C(=O)N[C@@H](CCSC)C(=O)N[C@@H](CC(C)C)C(=O)N[C@H](C(=O)N[C@@H](CCCNC(=N)N)C(=O)N1CCC[C@H]1C(=O)N[C@@H](CCCNC(=N)N)C(=O)N[C@@H](Cc1ccc(O)cc1)C(N)=O)[C@@H](C)O` [CAS_59763-91-6], the figures for the Ki in assay [1] and in assay [2] were 1000 nM and 122 nM, respectively.
